Measured values reported in ChEMBL document CHEMBL1201862, “PubChem BioAssay data set” (2004).
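Briefly, cells in 96-well plates were exposed to five compound concentrations for 48 h, and endpoints were estimated by linear interpolation. Here, GI50 denotes the concentration required for 50% inhibition of growth.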 Active and inactive are the calls of the source. No stated cut-off is given here; in the data, active = GI50 up to about 1.1 µM and inactive = higher.

What was measured:
Assay in all cases: inhibition of tumour cell growth, NCI panel, 48 h
HOP-62 = test system: HOP-62
DU-145 = test system: DU-145
786-0 = test system: 786-0
HCT-15 = test system: HCT-15
A498 = test system: A498
SNB-19 = test system: SNB-19
UO-31 = test system: UO-31
SF-539 = test system: SF-539
UACC-62 = test system: UACC-62
MCF7 = test system: MCF7
COLO 205 = test system: COLO 205
RPMI-8226 = test system: RPMI-8226
M14 = test system: M14
SN12C = test system: SN12C
SK-MEL-2 = test system: SK-MEL-2
MDA-MB-435 = test system: MDA-MB-435
NCI-H23 = test system: NCI-H23
SR = test system: SR
HT-29 = test system: HT-29
HOP-92 = test system: HOP-92

Measured: GI50

CCOC(=O)c1ccc(C(=O)/C(C(C)=O)=C2\CCCN2C)n1C
68.7 µM: HCT-15
active: SF-539 0.303 µM
inactive: HOP-62 57.9 µM | DU-145 > 100 µM | 786-0 > 100 µM | A498 65.8 µM | SNB-19 73.3 µM | UO-31 > 100 µM | UACC-62 49.1 µM | MCF7 61.7 µM | COLO 205 > 100 µM | RPMI-8226 61.2 µM | M14 > 100 µM | SN12C > 100 µM | SK-MEL-2 > 100 µM | MDA-MB-435 > 100 µM | NCI-H23 90.6 µM | SR 28.9 µM

CCNC(=O)c1c(O)nc2ccccc2c1O
inactive: HOP-62 64.9 µM | DU-145 80.9 µM | 786-0 67.3 µM | HT-29 46.2 µM | A498 > 100 µM | SNB-19 83.9 µM | UO-31 73.5 µM | SF-539 > 100 µM | MCF7 51.8 µM | COLO 205 56.9 µM | HOP-92 75.3 µM | RPMI-8226 17.6 µM | SN12C 67.6 µM | MDA-MB-435 59.7 µM | NCI-H23 > 100 µM | SR 25.5 µM
29 µM: HCT-15

CCOC(OCC)N1C(=O)C2(C(OCC)OCC)CC3C(OC(=O)N3N)c3cccc1c32 (configuration not stated)
inactive: HOP-62 > 100 µM | DU-145 > 100 µM | 786-0 > 100 µM | HT-29 > 100 µM | A498 61.2 µM | SNB-19 > 100 µM | UO-31 > 100 µM | SF-539 > 100 µM | UACC-62 > 100 µM | MCF7 > 100 µM | COLO 205 > 100 µM | RPMI-8226 > 100 µM | SN12C > 100 µM | MDA-MB-435 > 100 µM | NCI-H23 > 100 µM | SR > 100 µM
> 100 µM: HCT-15

CCCCCCCC(=O)N1C2CC3CCC2(CS1(=O)=O)C3(C)C (configuration not stated)
13.1 µM: HCT-15
inactive: HOP-62 20.8 µM | DU-145 36.6 µM | 786-0 15.7 µM | HT-29 > 10 µM | A498 76.9 µM | SNB-19 26 µM | UO-31 22.6 µM | SF-539 16.9 µM | UACC-62 22.8 µM | MCF7 18.7 µM | COLO 205 21.8 µM | HOP-92 20.6 µM | RPMI-8226 19.7 µM | M14 17.5 µM | SN12C 20.9 µM | MDA-MB-435 31.4 µM | NCI-H23 33.3 µM | SR 18.6 µM

Cc1ccc([N+](=O)[O-])cc1S(=O)(=O)Nc1ccc(C2=NN(S(=O)(=O)c3cc([N+](=O)[O-])ccc3C)C(c3cccs3)C2)cc1 (configuration not stated)
33.2 µM: HCT-15
inactive: HOP-62 30.1 µM | DU-145 51.3 µM | 786-0 44.2 µM | HT-29 38.4 µM | A498 13.8 µM | SNB-19 45.2 µM | UO-31 34.5 µM | UACC-62 15.8 µM | MCF7 10.7 µM | COLO 205 9.59 µM | HOP-92 33.7 µM | RPMI-8226 21.9 µM | M14 36 µM | SN12C 33.7 µM | SK-MEL-2 25.3 µM | MDA-MB-435 50 µM | NCI-H23 21.8 µM | SR 24.1 µM

Cn1c(-c2ccc[se]2)ccc1-c1ccc(CO)[se]1
active: A498 0.0389 µM | UACC-62 0.045 µM | MCF7 0.0139 µM | COLO 205 0.367 µM
18.3 µM: HCT-15
inactive: DU-145 35.9 µM | 786-0 25.6 µM | SNB-19 > 46.5 µM | UO-31 36.3 µM | SF-539 26.9 µM | HOP-92 7.41 µM | RPMI-8226 1.28 µM | M14 > 66.2 µM | SN12C > 76.6 µM | SK-MEL-2 34.7 µM | MDA-MB-435 17.3 µM | NCI-H23 24.9 µM | SR 10.4 µM

CSC1=N/C(=C\c2ccco2)C(=O)N1CN1CCCCC1
inactive: HOP-62 > 100 µM | DU-145 81.3 µM | 786-0 54.6 µM | HT-29 51.6 µM | A498 > 100 µM | SNB-19 87.3 µM | UO-31 > 100 µM | UACC-62 33.1 µM | MCF7 17.3 µM | COLO 205 38.4 µM | HOP-92 28.4 µM | RPMI-8226 35.6 µM | M14 85.3 µM | SN12C 65.3 µM | SK-MEL-2 > 100 µM | MDA-MB-435 > 100 µM | NCI-H23 > 100 µM | SR > 100 µM
38.4 µM: HCT-15

CCCC(=O)C1=C(O)C(Cc2c(O)c(C)c(O)c(C(=O)CCC)c2O)=C(O)C(C)(C)C1=O
inactive: HOP-62 31.8 µM | DU-145 > 50 µM | 786-0 > 50 µM | HT-29 20.4 µM | A498 46.8 µM | SNB-19 20.7 µM | UO-31 15.6 µM | UACC-62 > 50 µM | MCF7 21.9 µM | COLO 205 19.4 µM | HOP-92 10.2 µM | RPMI-8226 17 µM | M14 > 50 µM | SN12C > 50 µM | SK-MEL-2 22.4 µM | MDA-MB-435 > 50 µM | NCI-H23 15.8 µM | SR 14.7 µM
20 µM: HCT-15

CC(=O)c1cc(CC2Cc3cc4c(cc3C2=O)CCC4)cc2c1CCC2 (configuration not stated)
44.1 µM: HCT-15
inactive: HOP-62 > 100 µM | DU-145 > 100 µM | 786-0 80 µM | HT-29 48.2 µM | A498 84.7 µM | SNB-19 78 µM | UO-31 49.5 µM | SF-539 70.5 µM | UACC-62 > 100 µM | MCF7 30.8 µM | COLO 205 24.8 µM | RPMI-8226 10.7 µM | M14 69.7 µM | SN12C 47.4 µM | SK-MEL-2 71.1 µM | MDA-MB-435 32.2 µM | NCI-H23 15 µM | SR 29.9 µM

C[Si](C)(C)C#Cc1cc(-c2nc3ccccc3s2)ccc1N
inactive: HOP-62 16.2 µM | DU-145 26.6 µM | 786-0 17 µM | HT-29 20.1 µM | A498 19.9 µM | SNB-19 18.7 µM | UO-31 13.4 µM | SF-539 18.7 µM | UACC-62 16.3 µM | COLO 205 15.5 µM | HOP-92 11.5 µM | RPMI-8226 21.8 µM | M14 16.5 µM | SN12C 15.5 µM | MDA-MB-435 18.3 µM | NCI-H23 18.5 µM | SR 26.4 µM
active: MCF7 0.491 µM
16.9 µM: HCT-15

CC1C(C)(C)C23CC12C1(OCCO1)C3Br (configuration not stated)
inactive: HOP-62 > 100 µM | DU-145 > 100 µM | 786-0 > 100 µM | HT-29 > 100 µM | A498 > 100 µM | SNB-19 > 100 µM | UO-31 11.2 µM | SF-539 > 100 µM | UACC-62 > 100 µM | MCF7 > 100 µM | COLO 205 > 100 µM | RPMI-8226 > 100 µM | M14 > 100 µM | SN12C > 100 µM | MDA-MB-435 > 100 µM | NCI-H23 > 100 µM | SR > 100 µM
> 100 µM: HCT-15
